The text below walks through data of ChEMBL document CHEMBL5291721, “A preclinical secondary pharmacology resource illuminates target-adverse drug reaction associations of marketed drugs” (Nat Commun, 2023).

Assay [1] concerns the target Sodium-dependent noradrenaline transporter (Homo sapiens, UniProt P23975).
The target of assay [2] is Cannabinoid receptor 1 (Homo sapiens, UniProt P21554). The assay is classed as functional, cell-based.
Assay [3] deals with T1, Cholecystokinin receptor type A (Homo sapiens, UniProt P32238).
T1 sequence (P32238 whole entry): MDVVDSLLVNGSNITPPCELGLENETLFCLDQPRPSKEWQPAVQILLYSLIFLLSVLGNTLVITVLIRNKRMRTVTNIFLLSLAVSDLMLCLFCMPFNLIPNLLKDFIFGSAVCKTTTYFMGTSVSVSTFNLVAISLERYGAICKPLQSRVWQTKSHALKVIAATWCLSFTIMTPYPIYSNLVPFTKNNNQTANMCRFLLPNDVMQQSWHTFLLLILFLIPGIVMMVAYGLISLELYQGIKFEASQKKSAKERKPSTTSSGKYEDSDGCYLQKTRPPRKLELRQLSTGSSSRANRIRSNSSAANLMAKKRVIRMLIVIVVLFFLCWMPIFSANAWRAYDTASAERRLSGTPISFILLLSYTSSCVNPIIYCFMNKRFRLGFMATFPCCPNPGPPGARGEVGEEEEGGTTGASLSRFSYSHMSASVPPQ

Assay [4] deals with T2, Alpha-1A adrenergic receptor (Homo sapiens, UniProt P35348).
T2 sequence (P35348 whole entry): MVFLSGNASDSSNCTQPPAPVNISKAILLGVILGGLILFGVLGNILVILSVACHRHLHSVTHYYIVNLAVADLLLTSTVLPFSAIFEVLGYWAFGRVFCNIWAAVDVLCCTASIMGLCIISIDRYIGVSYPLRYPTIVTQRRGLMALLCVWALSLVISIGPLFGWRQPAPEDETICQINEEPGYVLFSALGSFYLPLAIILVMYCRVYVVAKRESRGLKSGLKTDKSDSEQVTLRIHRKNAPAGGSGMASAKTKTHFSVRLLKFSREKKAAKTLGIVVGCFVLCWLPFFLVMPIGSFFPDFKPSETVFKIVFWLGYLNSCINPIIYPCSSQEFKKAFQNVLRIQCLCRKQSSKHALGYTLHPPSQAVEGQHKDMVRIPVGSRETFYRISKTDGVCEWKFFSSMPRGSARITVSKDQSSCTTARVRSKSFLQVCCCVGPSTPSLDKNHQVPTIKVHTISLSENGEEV
Type of assay: functional, cell-based.

The target of assay [5] is T3, 5-hydroxytryptamine receptor 3A (Homo sapiens, UniProt P46098).
T3 sequence (P46098 whole entry): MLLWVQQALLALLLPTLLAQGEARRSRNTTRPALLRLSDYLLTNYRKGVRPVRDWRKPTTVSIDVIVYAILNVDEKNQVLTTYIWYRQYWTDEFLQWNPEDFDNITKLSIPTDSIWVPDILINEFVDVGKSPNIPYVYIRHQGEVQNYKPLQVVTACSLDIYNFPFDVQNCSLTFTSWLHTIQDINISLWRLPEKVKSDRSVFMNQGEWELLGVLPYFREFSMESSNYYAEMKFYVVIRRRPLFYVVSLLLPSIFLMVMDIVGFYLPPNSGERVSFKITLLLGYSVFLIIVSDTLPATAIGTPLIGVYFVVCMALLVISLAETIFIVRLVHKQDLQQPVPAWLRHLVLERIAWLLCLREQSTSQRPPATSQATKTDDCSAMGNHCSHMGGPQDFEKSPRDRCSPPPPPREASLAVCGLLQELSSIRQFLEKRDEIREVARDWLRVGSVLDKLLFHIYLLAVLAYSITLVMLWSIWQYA
The assay is classed as functional.

The target of assay [6] is T4, Endothelin-1 receptor (Homo sapiens, UniProt P25101).
T4 sequence (P25101 whole entry): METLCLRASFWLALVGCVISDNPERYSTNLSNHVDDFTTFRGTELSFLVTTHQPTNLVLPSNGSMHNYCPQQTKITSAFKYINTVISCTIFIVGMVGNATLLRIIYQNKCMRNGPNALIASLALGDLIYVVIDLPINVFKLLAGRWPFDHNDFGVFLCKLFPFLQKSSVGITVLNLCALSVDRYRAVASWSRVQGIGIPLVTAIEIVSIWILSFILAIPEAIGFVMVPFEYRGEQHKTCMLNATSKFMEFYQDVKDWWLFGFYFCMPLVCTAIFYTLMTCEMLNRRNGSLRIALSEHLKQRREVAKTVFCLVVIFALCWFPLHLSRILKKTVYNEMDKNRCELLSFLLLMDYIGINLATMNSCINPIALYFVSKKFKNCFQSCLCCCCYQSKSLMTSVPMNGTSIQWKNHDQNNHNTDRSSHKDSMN

Assay [7] deals with T5, Thromboxane A2 receptor (Homo sapiens, UniProt P21731).
T5 sequence (P21731 whole entry): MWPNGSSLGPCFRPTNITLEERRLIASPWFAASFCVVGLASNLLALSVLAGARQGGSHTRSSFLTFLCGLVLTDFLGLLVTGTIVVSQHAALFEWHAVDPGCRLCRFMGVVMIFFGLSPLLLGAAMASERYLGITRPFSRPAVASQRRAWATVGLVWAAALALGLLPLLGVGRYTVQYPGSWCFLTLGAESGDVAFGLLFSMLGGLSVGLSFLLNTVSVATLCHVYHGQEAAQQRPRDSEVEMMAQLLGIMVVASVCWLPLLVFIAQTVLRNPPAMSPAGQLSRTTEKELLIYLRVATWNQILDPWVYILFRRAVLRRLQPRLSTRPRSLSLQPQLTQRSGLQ

The target in assay [8] is Adenosine receptor A2a (Homo sapiens, UniProt P29274).

Broadly, the AC50 is the midpoint of the concentration-response curve, whichever way the signal moves. Lower therefore signals greater potency.
Note: assay procedure not described here.

Chain of Cannabinoid receptor 1 (P21554 whole entry): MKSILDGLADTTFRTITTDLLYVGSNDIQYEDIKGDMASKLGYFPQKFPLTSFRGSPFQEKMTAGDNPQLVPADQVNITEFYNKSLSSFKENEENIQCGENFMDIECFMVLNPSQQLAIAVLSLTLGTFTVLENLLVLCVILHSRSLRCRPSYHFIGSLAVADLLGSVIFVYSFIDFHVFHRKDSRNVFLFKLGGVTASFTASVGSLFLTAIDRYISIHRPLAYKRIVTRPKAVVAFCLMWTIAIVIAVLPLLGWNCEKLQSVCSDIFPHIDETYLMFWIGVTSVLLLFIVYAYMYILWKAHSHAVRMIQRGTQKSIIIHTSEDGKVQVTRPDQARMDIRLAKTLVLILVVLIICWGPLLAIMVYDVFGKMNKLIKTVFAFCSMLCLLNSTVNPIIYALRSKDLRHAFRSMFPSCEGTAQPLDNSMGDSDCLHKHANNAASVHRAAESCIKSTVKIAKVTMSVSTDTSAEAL
Chain of Adenosine receptor A2a (P29274 whole entry): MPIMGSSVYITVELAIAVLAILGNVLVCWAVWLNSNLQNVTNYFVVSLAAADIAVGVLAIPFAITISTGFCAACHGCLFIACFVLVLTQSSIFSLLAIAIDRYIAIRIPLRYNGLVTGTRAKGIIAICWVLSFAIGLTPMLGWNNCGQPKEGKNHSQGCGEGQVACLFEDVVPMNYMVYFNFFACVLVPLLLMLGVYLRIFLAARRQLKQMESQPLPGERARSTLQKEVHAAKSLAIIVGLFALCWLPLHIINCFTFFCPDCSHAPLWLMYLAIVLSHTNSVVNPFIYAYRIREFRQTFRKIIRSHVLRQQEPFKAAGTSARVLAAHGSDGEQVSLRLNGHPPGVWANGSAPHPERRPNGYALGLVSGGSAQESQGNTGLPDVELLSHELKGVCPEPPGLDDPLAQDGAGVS
Chain of Sodium-dependent noradrenaline transporter (P23975 whole entry): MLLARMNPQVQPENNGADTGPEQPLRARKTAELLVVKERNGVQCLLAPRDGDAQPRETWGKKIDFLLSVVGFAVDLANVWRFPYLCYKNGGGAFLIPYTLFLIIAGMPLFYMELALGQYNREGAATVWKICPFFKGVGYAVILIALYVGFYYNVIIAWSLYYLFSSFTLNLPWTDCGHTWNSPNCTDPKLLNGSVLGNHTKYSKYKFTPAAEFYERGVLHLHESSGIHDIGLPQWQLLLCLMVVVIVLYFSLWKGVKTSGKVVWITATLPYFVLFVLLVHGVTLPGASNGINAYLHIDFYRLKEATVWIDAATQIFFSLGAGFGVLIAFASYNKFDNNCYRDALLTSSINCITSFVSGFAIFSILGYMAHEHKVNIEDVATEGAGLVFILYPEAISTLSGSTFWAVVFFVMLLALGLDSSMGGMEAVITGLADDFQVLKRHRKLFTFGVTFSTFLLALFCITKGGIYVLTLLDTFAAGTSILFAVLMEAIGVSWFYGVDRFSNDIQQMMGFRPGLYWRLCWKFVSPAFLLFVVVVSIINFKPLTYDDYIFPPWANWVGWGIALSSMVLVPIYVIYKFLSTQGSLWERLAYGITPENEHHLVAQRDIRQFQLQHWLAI

Consider `CC(/C=C1\SC(=S)N(CC(=O)O)C1=O)=C\c1ccccc1`, for which the AC50 is 15 µM in assay [1]; over 30 µM in assay [2]; over 30 µM in assay [3]; 25 µM in assay [4]; 13 µM in assay [5]; over 30 µM in assay [6]. Moreover, the half-maximal activity concentration (AC50) was found to be 27 µM in assay [7] and 26 µM in assay [8].

Take `CNCC[C@@H](Oc1ccccc1C)c1ccccc1` [ATOMOXETINE]: the AC50 in assay [2], in assay [3], in assay [4], in assay [6], in assay [7] and in assay [8] was over 30 µM throughout.

Regarding `CCc1oc2ccccc2c1C(=O)c1cc(Br)c(O)c(Br)c1` [BENZBROMARONE], the AC50 in assay [1] was over 30 µM; in assay [2], over 30 µM; in assay [3] it was over 30 µM; in assay [4], 2.65 µM; in assay [5], over 30 µM; in assay [6], over 30 µM. Further, the AC50 is 29 µM in assay [7] and over 30 µM in assay [8].

Turning to `COC(=O)[C@H](c1ccccc1Cl)N1CCc2sccc2C1` [CLOPIDOGREL], the concentration at half-maximal activity (AC50) in assay [1], in assay [2], in assay [3], in assay [4], in assay [5] and in assay [6] was over 30 µM each time. Besides, the AC50 in assay [7] and in assay [8] was over 30 µM each time.

As for `Nc1nc(O)c2ncn(COC(CO)CO)c2n1` [GANCICLOVIR], the AC50 in assay [1], in assay [2], in assay [3], in assay [4], in assay [5] and in assay [6] was over 30 µM throughout. Further, the AC50 in assay [7] and in assay [8] was over 30 µM each time.

Regarding `Cc1cnc(NC(=O)C2=C(O)c3ccccc3S(=O)(=O)N2C)s1` [MELOXICAM], the AC50 in assay [1] is over 10 µM; in assay [2], over 30 µM; in assay [3], over 30 µM; in assay [4] it was over 30 µM; in assay [5], over 10 µM; in assay [6], 13.4 µM. For the same compound, the AC50 in assay [7] and in assay [8] was over 30 µM throughout.

With `CN(C)c1cc(CNCC(C)(C)C)c(O)c2c1C[C@H]1C[C@H]3[C@H](N(C)C)C(O)=C(C(N)=O)C(=O)[C@@]3(O)C(O)=C1C2=O` [OMADACYCLINE], the AC50 in assay [1] was over 30 µM; in assay [2], over 30 µM; in assay [3], over 30 µM; in assay [4] it was over 30 µM; in assay [5] it was 25 µM; in assay [6] it was over 30 µM. This compound also returned an AC50 in assay [8] of over 30 µM.

With `COc1ccnc(C[S+]([O-])c2nc3ccc(OC(F)F)cc3[nH]2)c1OC` (configuration not stated) [PANTOPRAZOLE], the AC50 in assay [1] was over 10 µM; in assay [2], over 30 µM; in assay [3], over 30 µM; in assay [4], over 30 µM; in assay [5], over 30 µM; in assay [6], over 30 µM. Further, the AC50 in assay [7] and in assay [8] was over 30 µM throughout.

Turning to `COc1ccc(Cc2nccc3cc(OC)c(OC)cc23)cc1OC` [PAPAVERINE], the AC50 in assay [1], in assay [2], in assay [3], in assay [4], in assay [5] and in assay [6] was over 30 µM in each case. Further, the AC50 in assay [7] and in assay [8] was over 30 µM in each case.

For `O=C1NC(=O)C(c2ccccc2)(c2ccccc2)N1` [PHENYTOIN], the AC50 in assay [1], in assay [2], in assay [3], in assay [4], in assay [5] and in assay [6] was over 30 µM each time. Further, the AC50 in assay [7] and in assay [8] was over 30 µM in each case.

`CCOc1cc(CC(=O)N[C@@H](CC(C)C)c2ccccc2N2CCCCC2)ccc1C(=O)O` [REPAGLINIDE]: the AC50 in assay [1], in assay [2], in assay [3], in assay [4], in assay [5] and in assay [6] was over 30 µM throughout. Moreover, in assay [8], the AC50 is over 30 µM.

For the compound `O=C(Nc1c(Cl)cncc1Cl)c1ccc(OC(F)F)c(OCC2CC2)c1` [ROFLUMILAST], the AC50 in assay [1], in assay [2], in assay [3], in assay [4], in assay [5] and in assay [6] was over 30 µM each time. For the same compound, the AC50 in assay [7] and in assay [8] was over 30 µM each time.

With `CCCN(CCC)CCc1cccc2c1CC(=O)N2` [ROPINIROLE], the AC50 in assay [1], in assay [2], in assay [3], in assay [4], in assay [5] and in assay [6] was over 30 µM each time. Further, the AC50 in assay [7] and in assay [8] was over 30 µM each time.

Take `CC[C@H]1OC(=O)[C@H](C)[C@@H](O[C@H]2C[C@@](C)(OC)[C@@H](O)[C@H](C)O2)[C@H](C)[C@@H](O[C@@H]2O[C@H](C)C[C@H](N(C)C)[C@H]2O)[C@](C)(O)C[C@@H](C)/C(=N\OCOCCOC)[C@H](C)[C@@H](O)[C@]1(C)O` [ROXITHROMYCIN]: the AC50 in assay [1], in assay [2], in assay [3], in assay [4], in assay [5] and in assay [6] was over 30 µM in each case. Moreover, the AC50 in assay [8] was over 30 µM.

On to `CC(C)N(CCCCOCC(=O)NS(C)(=O)=O)c1cnc(-c2ccccc2)c(-c2ccccc2)n1` [SELEXIPAG], for which the AC50 in assay [1] is over 30 µM; in assay [2], over 30 µM; in assay [3] it was over 30 µM; in assay [4] it was 7.2 µM; in assay [5], over 30 µM; in assay [6] it was over 30 µM. Also, the concentration at half-maximal activity (AC50) is 23.9 µM in assay [7] and over 30 µM in assay [8].

In the case of `Cn1c(=O)c2[nH]cnc2n(C)c1=O` [THEOPHYLLINE], the AC50 in assay [1], in assay [2], in assay [3], in assay [4], in assay [5] and in assay [6] was over 30 µM throughout. This compound also came in with an AC50 in assay [7] of over 30 µM.
